Test: LD50 in mice, dosed intravenously
Details: mouse, in vivo, iv

## NC(=NCC(F)(F)F)Nc1ccnc(OCCCO)n1 [Example 1, 4-[2-(2,2,2-trifluoroethyl)guanidino]-2-(3-hydroxypropoxy)pyrimidine]
  LD50: ~30 mg/kg

— US4451463A, “Alcohol derivatives” (Imperial Chemical Industries PLC, priority 1981, dated 1984)
